Results as given in patent US6953812B2, “Glucagon antagonists/inverse agonists” (Novo Nordisk, Inc., priority 2000, dated 2005).

Assays:
[1] = molecular target: T1, human glucagon receptor (Homo sapiens, UniProt P47871); assay: Glucagon Binding Assay (II); settings: membranes of BHK cells transfected with human glucagon receptor, 125I-glucagon, SPA; read-out: Glu Bd Assay (II) IC50
T1 construct: expressed in transfected cells; host or cells: BHK (baby hamster kidney) cells, membrane preparation
T1 sequence (P47871 26-477): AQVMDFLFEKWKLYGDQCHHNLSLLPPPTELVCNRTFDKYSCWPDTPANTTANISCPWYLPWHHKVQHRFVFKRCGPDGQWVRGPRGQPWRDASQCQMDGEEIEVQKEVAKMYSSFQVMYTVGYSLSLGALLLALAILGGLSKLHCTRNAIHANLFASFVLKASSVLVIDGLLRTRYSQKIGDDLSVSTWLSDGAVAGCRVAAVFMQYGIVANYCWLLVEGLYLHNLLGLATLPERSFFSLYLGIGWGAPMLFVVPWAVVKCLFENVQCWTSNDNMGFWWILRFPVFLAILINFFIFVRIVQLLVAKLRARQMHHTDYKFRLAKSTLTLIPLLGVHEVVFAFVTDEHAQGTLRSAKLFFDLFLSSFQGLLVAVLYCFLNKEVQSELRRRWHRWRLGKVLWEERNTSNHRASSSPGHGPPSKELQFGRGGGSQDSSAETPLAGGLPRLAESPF
Method in brief: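 Membranes from BHK cells transfected with the human glucagon receptor were incubated with test compound (in DMSO) in HEPES buffer pH 7.5 with Ca2+/Mg2+ and WGA beads for 4 h, then settled 8–48 h before scintillation counting. Non-specific binding was defined with 500 nM glucagon.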

[2] = molecular target: T2, human GIP receptor (Homo sapiens, UniProt P48546); assay: GIP Binding Assay; settings: membranes of BHK cells transfected with human GIP receptor, 125I-GIP, SPA; read-out: GIP Bd Assay IC50
T2 construct: expressed in transfected cells; host or cells: BHK (baby hamster kidney) cells, membrane preparation
T2 sequence (P48546 22-466): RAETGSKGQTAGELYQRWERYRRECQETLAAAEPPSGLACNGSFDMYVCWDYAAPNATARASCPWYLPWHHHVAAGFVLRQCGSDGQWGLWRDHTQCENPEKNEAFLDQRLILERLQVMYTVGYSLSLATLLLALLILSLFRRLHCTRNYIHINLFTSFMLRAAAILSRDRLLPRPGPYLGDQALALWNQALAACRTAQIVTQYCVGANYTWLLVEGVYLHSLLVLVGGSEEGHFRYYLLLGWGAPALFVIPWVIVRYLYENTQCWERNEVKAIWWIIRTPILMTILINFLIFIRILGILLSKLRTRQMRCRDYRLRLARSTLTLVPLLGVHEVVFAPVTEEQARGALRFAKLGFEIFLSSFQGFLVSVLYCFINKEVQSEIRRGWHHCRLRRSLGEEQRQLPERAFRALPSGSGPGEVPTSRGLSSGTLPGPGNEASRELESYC
Method in brief: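 Membranes from BHK cells transfected with human GIP receptor; competition binding in HEPES pH 7.5 buffer with Ca2+/Mg2+, compounds added in DMSO, WGA SPA beads. Incubated 3.5 h shaking, settled 8-48 h, then scintillation counted; non-specific binding defined with 500 nM GIP.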

| IC50 [1] [nM] | IC50 [2] [nM] | melting point [°C] | SMILES |
| --- | --- | --- | --- |
| 228 | 700 | 185 to 187 | CC(C)(C)[C@H]1CC[C@H](N(Cc2ccc(C(=O)NC[C@H](O)C(=O)O)cc2)C(=O)Nc2cc(C(F)(F)F)cc(C(F)(F)F)c2)CC1 [Example 13, (S)-Trans-3-{4-[3-(3,5-Bis(trifluoromethyl)phenyl)-1-(4-tert-butylcyclohexyl)ureidomethyl]benzoylamino}-2-hydroxypropionic acid] |
| 19 | 274 | 184 to 187 | CC(C)(C)[C@H]1CC[C@H](N(Cc2ccc(C(=O)NC[C@@H](O)C(=O)O)cc2)C(=O)Nc2cc(C(F)(F)F)cc(C(F)(F)F)c2)CC1 [Example 14, (R)-Trans-3-{4-[3-(3,5-bis(trifluoromethyl)phenyl)-1-(4-tert-butylcyclohexyl)ureidomethyl]benzoylamino}-2-hydroxypropionic acid] |
| 12 | 189 | 151 to 155 | CC(C)(C)C1CC=C(c2ccc(N(Cc3ccc(C(=O)NC[C@@H](O)C(=O)O)cc3)C(=O)Nc3cc(Cl)cc(Cl)c3)cc2)CC1 (stereo partly drawn) [Example 33, 3-{4-[1-[4-(4-tert-Butylcyclohex-1-enyl)phenyl]-3-(3,5-dichlorophenyl)ureidomethyl]benzoyl-amino}-2-(R)-hydroxypropionic Acid] |
| 542 | > 3000 |  | O=C(NC[C@@H](O)C(=O)O)c1ccc(CN(C(=O)CCc2cc(C(F)(F)F)cc(C(F)(F)F)c2)c2ccc(C3CCCCC3)cc2)cc1 [Example 72, (R)-3-(4-{[(3-(3,5-Bis(trifluoromethyl)phenyl)propionyl)-(4-cyclohexylphenyl)amino]methyl}benzoylamino)-2-hydroxypropionic acid] |
| 680 | > 3000 |  | O=C(NC[C@@H](O)C(=O)O)c1ccc(CN(C(=O)CCc2cccc([N+](=O)[O-])c2)c2ccc(C3CCCCC3)cc2)cc1 [Example 73, (R)-3-[4-({(4-Cyclohexylphenyl)-[3-(3-nitrophenyl)propionyl]amino}methyl)benzoylamino]-2-hydroxypropionic acid] |
